# From PMC3050433, “The effects of maribavir on the autophosphorylation of ganciclovir resistant mutants of the cytomegalovirus UL97 protein” (Herpesviridae, 2010)
# Target: T1, UL97 L397R (Human cytomegalovirus, UniProt Q68101, L397R)
# T1 construct: PCR reaction to generate the full length UL97; honey bee melittin secretion signal (N); expressed in transfected cells; host or cells: Sf21 insect cells infected with recombinant baculovirus
# T1 sequence (Q68101 1-707 L397R): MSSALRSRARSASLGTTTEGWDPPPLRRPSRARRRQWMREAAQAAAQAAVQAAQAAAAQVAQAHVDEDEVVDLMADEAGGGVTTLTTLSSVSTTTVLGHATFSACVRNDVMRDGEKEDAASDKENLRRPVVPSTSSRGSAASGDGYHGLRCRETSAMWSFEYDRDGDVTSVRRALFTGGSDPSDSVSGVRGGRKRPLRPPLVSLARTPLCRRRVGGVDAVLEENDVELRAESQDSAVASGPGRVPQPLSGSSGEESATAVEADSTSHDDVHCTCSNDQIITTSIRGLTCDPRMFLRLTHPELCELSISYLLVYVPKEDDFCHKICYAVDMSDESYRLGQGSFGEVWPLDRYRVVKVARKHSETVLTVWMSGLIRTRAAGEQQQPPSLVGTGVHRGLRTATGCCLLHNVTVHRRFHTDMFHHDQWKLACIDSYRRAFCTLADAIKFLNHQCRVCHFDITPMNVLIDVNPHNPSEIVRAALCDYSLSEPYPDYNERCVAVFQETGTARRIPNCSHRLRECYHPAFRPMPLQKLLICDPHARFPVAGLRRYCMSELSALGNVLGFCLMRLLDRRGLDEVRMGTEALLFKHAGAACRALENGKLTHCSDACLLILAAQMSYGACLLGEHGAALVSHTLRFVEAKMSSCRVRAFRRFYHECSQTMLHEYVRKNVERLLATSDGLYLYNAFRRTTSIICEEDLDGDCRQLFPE
# Assay: UL97 autophosphorylation protein kinase assay, L397R
# Type: biochemical
# Settings: L397R mutant
# Protocol: Analysis of the autophosphorylation of wild type and mutant UL97 protein species was performed by a standard protein kinase assay as previously described (46). Briefly, purified protein was added to 2× protein kinase buffer (100 mM Tris HCl, pH9.0, 20 mM MgCl2, 10 μM ATP, 4 mM DTT, 2 M NaCl) and 370 KBq [γ^32P] ATP (Amersham), made up to 20 μl with SDW and incubated at 37°C. The reactions were terminated by the addition of 2× SDS sample buffer followed by boiling for 3 minutes. The amount of radiolabelled phosphate incorporated by autophosphorylation was analysed by SDS-PAGE and measured using the Biorad Mulitanalyst. The protein kinase assays were initially performed for 2 to 60 minutes to determine the maximum rate of phosphate incorporation, all assays were then performed at the maximum rate which equated to 5 minutes.
# Enzyme kinetic analysis was performed on the purified wild type and mutant UL97 protein species as above using increasing concentrations of ATP (2 μM to 20 μM). The amount of incorporated radiolabelled phosphate was plotted against the concentration of ATP in a Lineweaver Burke plot to determine the Km for ATP for each UL97 species. […]
smiles,measurement,setting,value
"CC(C)Nc1nc2cc(Cl)c(Cl)cc2n1[C@H]1O[C@@H](CO)[C@H](O)[C@@H]1O [maribavir, 5,6-dichloro-2-(isopropylamino)-1-beta-L-ribofuranosyl-1H-benzimidazole]",reduction in autophosphorylation,drug concentrations increased to 100 μM,did not exhibit a reduction in autophosphorylation
same,effect on autophosphorylation,maribavir 0.5 μM,unaffected
